Experimental data as given in patent US7713960B2, “Inhibition of the Raf/Mek/P-Erk pathway for treating cancer” (University of South Florida, priority 2005, dated 2010).

How the values were obtained:
[1] = system: Rap-1; assay: Rap-1 activation assay, ACHN cells; assay type: cell-based, human; details: 10 μM, 1 hour
Protocol: The effect of B2AR stimulation on Rap1 was investigated using the following methods: A Rap-1 activation assay kit (Upstate, Temecula, Calif.) was used according to protocol to determine if stimulation of the B2AR by ARA-211, and subsequent downstream signaling resulting in inhibition of P-Erk 1/2, is mediated by activation of Rap-1 directly by the Rap-1 guanine nucleotide exchange factor Epac. […] Cells were incubated with drugs for 1 hour unless noted otherwise. Cells were then lysed, the positive control lysate was incubated with 10 mM EDTA and 100 μM GTPγS and incubated for 30 minutes to load GTP onto Rap-1. Lysates from all samples were then incubated with 25 μg GST-RalGDS-Rap-1 binding domain beads for 45 minutes, washed with assay buffer 3×, resuspended in 40 μl of 2×Laemmli sample buffer and boiled for 5 minutes. Samples were resolved by SDS-PAGE electrophoresis, transferred to nitrocellulose, blotted overnight with 1 μ/ml polyclonal anti-Rap-1, and visualized by chemiluminescence.

[2] = system: P-Erk 1/2; assay: P-Erk 1/2 levels (Western blotting), MDA-MB-231; assay type: cell-based, human; details: MDA-MB-231; with ARA-211
Protocol: Western Blotting—Treated cell samples were lysed in 30 mM HEPES, 10 mM NaCl, 5 mM MgCl2, 25 mM NaF, 1 mM EGTA, 1% Triton-X-100, 10% Glycerol, 2 mM Sodium orthovanidate, 10 μg/mL aprotinin, 10 μg/mL soybean trypsin inhibitor, 25 μg/mL leupeptin, 2 mM phenylmethylsulfonylfluoride (PMSF), 6.4 mg/mL p-nitrophenylphosphate for 30 minutes at 4° C., and proteins run on SDS-PAGE gels then transferred to nitrocellulose membranes. Membranes were blocked in either 5% milk in PBS, pH 7.4, containing 0.1% Tween-20 (PBS-T) or 1% BSA in TBS, pH 7.5, containing 0.1% Tween-20 (TBS-T). Phospho-STAT3 and phospho-AKT antibodies were diluted in 1% BSA in TBS-T while phospho-c-Raf, phospho-Mek, and phospho-p44/p42 MAPK antibodies (Cell Signaling) were diluted in 5% milk in PBS-T for either 1 hour at room temperature or overnight at 4° C. HRP-conjugated secondary antibodies (Jackson ImmunoResearch, West Grove, Pa.) were diluted in 5% milk in PBS-T or TBS-T at a 1:1000 dilution for one hour at room temperature. Western blots results were visualized using enhanced chemiluminescence. Stripping of the membranes for reblotting was done using stripping buffer (62.5 mM Tris pH 7.6, 2% SDS, 0.7% 2-mercaptoethanol) at 50° C. for 30 minutes.

[3] = system: MDA-MB-231 cells; assay: Alamar Blue proliferation assay, MDA-MB-231; assay type: cell-based, human; details: MDA-MB-231; with ARA-211
Protocol: Cell Lines and Transfections—All cell lines used were obtained from American Type Tissue Collection (ATCC), (Manassas, Va.), or from the DCTD Tumor Repository, (Frederick, Md.). Propagation was carried out according to ATCC protocols. Propagation media was obtained from Invitrogen Corporation (Carlsbad, Calif.). DNA transfections were carried out using TransIT-LT1 transfection reagent (Takara Mirus, Madison, Wis.) according to the manufacturer's protocol. Briefly, 4×10^5 MDA-MB-231 cells were grown to approximately 70% confluency in medium supplemented with 10% FBS (Atlanta Biologicals, Atlanta, Ga.) in the absence of antibiotics. For transfection, LT1 was pre-incubated in 200 μl per transfection in Opti-MEM (Invitrogen) for 20 minutes prior to addition of plasmid. […]
Alamar Blue proliferation assay—For proliferation assays using exogenous constitutively activated MEK or the B2AR antagonist ICI-118.551, Alamar Blue metabolism assay used to determine cell viability according to the manufacturers protocol (Biosource, Camarillo, Calif.). […] Media/Alamar Blue was removed from the cells and aliquoted into 96 well plates (100 μl per well) and fluorescence read on a Wallac Victor 2 plate reader at excitation 540 nm, and emission 615 nm.

[4] = biological target: T1, Mek-1 (Homo sapiens, UniProt Q02750); assay: In vitro kinase assay, Mek-1 immunoprecipitated from MDA-MB-231 cells; assay type: biochemical; details: immunoprecipitated kinase treated in vitro, 10 μM
T1 construct: c-Raf-1 and Mek-1, immunoprecipitated from MDA-MB-231 cells; endogenous in cells; host or cells: MDA-MB-231
T1 sequence (Q02750 whole entry): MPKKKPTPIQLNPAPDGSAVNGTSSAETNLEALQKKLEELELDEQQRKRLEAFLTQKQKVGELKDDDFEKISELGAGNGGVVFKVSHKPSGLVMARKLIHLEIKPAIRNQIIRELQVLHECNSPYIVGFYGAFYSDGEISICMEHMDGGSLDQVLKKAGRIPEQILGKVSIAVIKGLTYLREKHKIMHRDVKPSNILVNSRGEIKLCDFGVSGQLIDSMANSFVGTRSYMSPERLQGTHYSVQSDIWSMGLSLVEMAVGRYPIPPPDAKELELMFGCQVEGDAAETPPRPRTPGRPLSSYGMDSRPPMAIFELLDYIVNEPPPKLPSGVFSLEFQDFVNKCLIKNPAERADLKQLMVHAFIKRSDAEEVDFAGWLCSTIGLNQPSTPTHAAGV
Protocol: In Vitro Kinase Assays—MDA-MB-231 cells (2×10^6) were lysed for 30 minutes at 4° C. in RIPA-150 buffer (10 mM Tris pH 7.5, 150 mM NaCl, 10% glycerol, 5 mM EDTA, 1% Triton X-100, 0.1% SDS, 100 μM sodium orthovanadate, 1 μM aprotinin, 10 μM leupeptin, 10 μM antipain). Cell debris was pelleted at 13000 rpm for 15 minutes at 4° C. and the lysate was rocked overnight with 10 μg of either c-Raf or MEK antibodies (Santa Cruz Biotechnologies, Santa Cruz, Calif.). 25 μl of protein A/G PLUS agarose (Santa Cruz Biotechnology) was then added and rocked for 4 hours at 4° C. Samples were spun at 2000 rpm for 5 minutes to collect the agarose beads, which were then washed four times with lysis buffer. On the final wash each pellet was divided into 5. […]

| SMILES | Rap-1 activation (GTP-loaded Rap-1) [1] | also measured |
| --- | --- | --- |
| CO[C@@H]1[C@@H]2OP(=O)(O)OC[C@H]2O[C@H]1n1c(Sc2ccc(Cl)cc2)nc2c(N)ncnc21 [EPAC activator, 8-(4-chlorophenylthio)-2′-O-methyladenosine-3′,5′-cyclic monophosphate] | activated Rap-1 |  |
| O=S(=O)(NCCNC/C=C/c1ccc(Br)cc1)c1cccc2cnccc12 [H89] | had no effect on Rap-1 activation |  |
| Cc1ccc(OCC(O)C(C)NC(C)C)c2c1CCC2 (stereo not drawn) [ICI 118, 551] |  | effect of β2 antagonist on ARA-211 suppression of P-Erk 1/2 levels [2]: prevented ARA-211 from suppressing P-Erk 1/2 levels; effect of β2 AR antagonist on ARA-211 inhibition of tumor cell growth [3]: rescued human cancer cells from ARA-211 inhibition of tumor cell growth |
| N#CC(=C(/N)Sc1ccccc1N)/C(C#N)=C(\N)Sc1ccccc1N [U-0126] |  | in vitro Mek-1 kinase activity [4]: blocked |
| CC(C)NCC(O)c1ccc(O)c(O)c1 (stereo not drawn) [isoproterenol] | activated Rap-1 |  |
